Reference: patent EP4140481A1, “PROTEIN-OLIGOMER BINDING AGENTS AND THERAPEUTIC USES THEREOF” (Galyan Bio, Inc., priority 2021, dated 2023)
Entries after “also recorded” stand apart in the source; their conditions may differ.

Experiments:
[1] = Pharmacokinetics of Compound 22 in plasma and brain (UHPLC-TOF); assay type: in vivo, male CD1 mice
Description: Compound 22 pharmacokinetic properties was measured in three male CD1 mice at several timepoints. Compound 22 was dissolved in 10% DMSO, 10%, cremaphor, and 80% saline. The tested dose was 33.3 mg/kg body weight. Brain tissue was homogenized and protein precipitated with acetonitrile. […] As such, Compound 22 was selected for testing in an animal model of HD the R6/2 model. As described below, Compound 22 and its analogs were further tested for their effects on striatal cell viability and effects of mHTT levels.

[2] = system: LC3; test: Autophagic flux (LC3 staining); assay type: cell-based, mouse
Description: Staining - Cells were permeabilized with 0.3% Triton X-100 in 4 °C PBS (pH 7.4 from ThermoFisher) for 10 minutes. Then the cells were washed two times with 4 °C PBS. Subsequently, cells are blocked with 3% NGS (normal goat serum from Thermo Fisher) in 4 ° C PBS for 1 hour. Cells were incubated with primary antibodies in blocking buffer (PBS, 3% NGS, 0.02% NaN3) over night at 4 °C. Primary antibodies were mouse antipolyglutamine monoclonal antibody 3B5H10 (Sigma-Aldrich) at 1:250 dilution and Guinea Pig anti-MAP2 polyclonal antibody (Synaptic Systems) at 1:500 dilution. […]
Fluorescence Imaging - Imaging sessions were performed on a confocal microscope system (Carl Zeiss Microscopy) equipped with a dual spinning disk unit (Yokogawa). […] The fluorescence images obtained of the immunofluorescence labelled tissue sections were quantified with the help of the "Image Processing and Analysis in Java" or short ImageJ software distributed under the GNU General Public License by the NIH (Rueden, C.T. et al., BMC Bioinformatics. 2017 Nov 29;18(1):529), i.e. the edition used was the Fiji distribution (Schindelin, J. et al., Nature methods. 2012 Jun 28;9(7):676-82). […]
Autophagic flux was calculated as the area stained with LC3 antibody per cell in STHdh 111/111 with autophagy inhibitor NH4CI minus area stained with LC3 antibody per cell in STHdh 111/111 without the autophagy inhibitor NH4CI.

[3] = molecular target: T1, Amyloid-β 1-40 (Ab40) (Homo sapiens, UniProt P05067); test: Dynamic Light Scattering (DLS), induced aggregation; assay type: biochemical; conditions: equimolar Compound 4
T1 construct: purchased rPeptide, Watkinsville, Georgia A-1153-2
T1 sequence (P05067 672-711): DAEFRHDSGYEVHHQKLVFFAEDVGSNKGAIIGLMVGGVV
Description: Proteins were ultracentrifuged with 50,000 rpm (rounds per minute) for one hour at 2 °C. The supernatant was used for DLS measurements. DLS measurements were conducted with Malvern Zetasizer Nano (Malvern Panalytical Ltd, United Kingdom).
Amyloid-β 1-40 (Ab40) (catalog A-1153-2, rPeptide, Watkinsville, Georgia) Sequence
The aliquots of lyophilized Amyloid-β 1-40 (Ab40) peptide were hydrated at room temperature in 50 mM phosphate buffer pH 7.4 and 100 mM NaCl (Buffer 1)
The aliquots of lyophilized Ab peptide were hydrated at room temperature in 75 mM MOPS pH 7.4 and 2 mM CaCl2 (Buffer 2)

[4] = Buffer 1, Ab40 154 µM, 100% of Ab40
[5] = by intensity, Buffer2, Ab40 155 µM

Compound | penetration of the blood brain area in vivo ([1]; 33.3 mg/kg body weight, plasma and brain) | Blood Brain Barrier Penetrability AUCbrain/AUCplasma ([1]; Compound 22 in mice) | Cmax ([1]; male, CD1, mouse, brain, ip, 33.3 mg/kg body weight, i.p. administration and formulation, read-out: Brain exposure Cmax) [µM] | autophagic flux ([2]; STHdh 111/111, LC3 area with NH4Cl minus without NH4Cl) | LC3 stained area ([2]; STHdh 111/111 neurons versus untreated, p < 0.001) | mean size, distribution by number [3, 4] [nm] | mean size, distribution by volume [3, 4] [nm] | Size, Peak 1 ([3]; by intensity, Buffer2 (MOPS, CaCl2), Ab40 155 µM) [nm] | % Intensity, Peak 1 [3, 5] [%] | % Intensity, Peak 2 [3, 5] [%] | % Intensity, Peak 3 [3, 5] [%] | Size, Peak 2 [3, 5] [nm] | Size, Peak 3 [3, 5] [nm]
Cc1[nH]c2ccc(C(=O)NCCN(C(C)C)C(C)C)cc2c1C [Compound 22] | penetrates the blood brain area; also recorded: can penetrate the blood brain area in vivo | AUCbrain/AUCplasma = 2.24 | 5.56 | positive autophagic flux | decreased | – | – | – | – | – | – | – | –
CCc1c(C)[nH]c2ccc(C(=O)NCCN(CC)CC)cc12 [Compound 4, N-(2-(diethylamino)ethyl)-3-ethyl-2-methyl-1H-indole-5-carboxamide] | – | – | – | – | – | 141.5 | 208.5 | 304.8 | 55.5 | 33.5 | 6.1 | 77.06 | 0.7710
